Measured values from patent US8889854B2, “C-17 bicyclic amines of triterpenoids with HIV maturation inhibitory activity” (priority 2012, dated 2014).

Test system: recombinant NL4-3 virus (Renilla luciferase in nef, Gag P373S; NLRluc)
Test: HIV Cell Culture Assay (luciferase reporter virus in MT-2 cells)
Type: cell-based
Conditions: Renilla, NL43, MT-2 cells infected for 4-5 days with NLRluc recombinants, luciferase activity
Protocol: MT-2 cells and 293T cells were obtained from the NIH AIDS Research and Reference Reagent Program. MT-2 cells were propagated in RPMI 1640 media supplemented with 10% heat inactivated fetal bovine serum, […]. The 293T cells were propagated in DMEM media supplemented with 10% heat inactivated fetal bovine serum (FBS), 100 units/mL penicillin G and 100 μg/mL streptomycin. The proviral DNA clone of NL4-3 was obtained from the NIH AIDS Research and Reference Reagent Program. A recombinant NL4-3 virus, in which a section of the nef gene from NL4-3 was replaced with the Renilla luciferase gene, was used as a reference virus. In addition, residue Gag P373 was converted to P373S. Briefly, the recombinant virus was prepared by transfection of the altered proviral clone of NL4-3. Transfections were performed in 293T cells using LipofectAMINE PLUS from Invitrogen (Carlsbad, Calif.), according to manufacturer's instruction. The virus was titered in MT-2 cells using luciferase enzyme activity as a marker. Luciferase was quantitated using the Dual Luciferase kit from Promega (Madison, Wis.), with modifications to the manufacturer's protocol. The diluted Passive Lysis solution was pre-mixed with the re-suspended Luciferase Assay Reagent and the re-suspended Stop & Glo Substrate (2:1:1 ratio). Fifty (50) μL of the mixture was added to each aspirated well on assay plates and luciferase activity was measured immediately on a Wallac TriLux (Perkin-Elmer). Antiviral activities of inhibitors toward the recombinant virus were quantified by measuring luciferase activity in cells infected for 4-5 days with NLRluc recombinants in the presence serial dilutions of the inhibitor. Table 1 is the key for the data in Table 2.

SMILES	EC50 (reported as group A/B) [nM]	EC50 [nM]
C=C(C)[C@@H]1CC[C@]2(NCCN3C[C@@H]4C[C@H]3CS4(=O)=O)CC[C@]3(C)[C@H](CC[C@@H]4[C@@]5(C)CC=C(c6ccc(C(=O)O)cc6)C(C)(C)[C@@H]5CC[C@]43C)[C@@H]12 [Example 5, 4-((1R,3aS,5aR,5bR,7aR,11aS,11bR,13aR,13bR)-3a-((2-((1S,4S)-2,2-dioxido-2-thia-5-azabicyclo[2.2.1]heptan-5-yl)ethyl)amino)-5a,5b,8,8,11a-pentamethyl-1-(prop-1-en-2-yl)-2,3,3a,4,5,5a,5b,6,7,7a,8,11,11a,11b,12,13,13a,13b-octadecahydro-1H-cyclopenta[a]chrysen-9-yl)benzoic acid]	< 100	–
C=C(C)[C@@H]1CC[C@]2(N(CCO)CCN3C[C@@H]4C[C@H]3CS4(=O)=O)CC[C@]3(C)[C@H](CC[C@@H]4[C@@]5(C)CC=C(c6ccc(C(=O)O)cc6)C(C)(C)[C@@H]5CC[C@]43C)[C@@H]12 [Example 6, 4-((1R,3aS,5aR,5bR,7aR,11aS,11bR,13aR,13bR)-3a-((2-((1S,4S)-2,2-dioxido-2-thia-5-azabicyclo[2.2.1]heptan-5-yl)ethyl)(2-hydroxyethyl)amino)-5a,5b,8,8,11a-pentamethyl-1-(prop-1-en-2-yl)-2,3,3a,4,5,5a,5b,6,7,7a,8,11,11a,11b,12,13,13a,13b-octadecahydro-1H-cyclopenta[a]chrysen-9-yl)benzoic acid]	< 100	–
C=C(C)[C@@H]1CC[C@]2(NCCN3C[C@@H]4C[C@H]3CO4)CC[C@]3(C)[C@H](CC[C@@H]4[C@@]5(C)CC=C(c6ccc(C(=O)O)cc6)C(C)(C)[C@@H]5CC[C@]43C)[C@@H]12 [Example 7, 4-((1R,3aS,5aR,5bR,7aR,11aS,11bR,13aR,13bR)-3a-((2-((1S,4S)-2-oxa-5-azabicyclo[2.2.1]heptan-5-yl)ethyl)amino)-5a,5b,8,8,11a-pentamethyl-1-(prop-1-en-2-yl)-2,3,3a,4,5,5a,5b,6,7,7a,8,11,11a,11b,12,13,13a,13b-octadecahydro-1H-cyclopenta[a]chrysen-9-yl)benzoic acid]	< 100	–
CC(C)[C@@H]1CC[C@]2(NCCN3C[C@@H]4C[C@H]3CO4)CC[C@]3(C)[C@H](CC[C@@H]4[C@@]5(C)CC=C(c6ccc(C(=O)O)cc6)C(C)(C)[C@@H]5CC[C@]43C)[C@@H]12 [Example 8, 4-((1S,3aS,5aR,5bR,7aR,11aS,11bR,13aR,13bR)-3a-((2-((1S,4S)-2-oxa-5-azabicyclo[2.2.1]heptan-5-yl)ethyl)amino)-1-isopropyl-5a,5b,8,8,11a-pentamethyl-2,3,3a,4,5,5a,5b,6,7,7a,8,11,11a,11b,12,13,13a,13b-octadecahydro-1H-cyclopenta[a]chrysen-9-yl)benzoic acid]	< 100	–
C=C(C)[C@@H]1CC[C@]2(NCCN3C[C@@H]4C[C@H]3CN4Cc3ccccc3)CC[C@]3(C)[C@H](CC[C@@H]4[C@@]5(C)CC=C(c6ccc(C(=O)O)cc6)C(C)(C)[C@@H]5CC[C@]43C)[C@@H]12 [Example 9, 4-((1R,3aS,5aR,5bR,7aR,11aS,11bR,13aR,13bR)-3a-((2-((1S,4S)-5-benzyl-2,5-diazabicyclo[2.2.1]heptan-2-yl)ethyl)amino)-5a,5b,8,8,11a-pentamethyl-1-(prop-1-en-2-yl)-2,3,3a,4,5,5a,5b,6,7,7a,8,11,11a,11b,12,13,13a,13b-octadecahydro-1H-cyclopenta[a]chrysen-9-yl)benzoic acid]	–	6.09
C=C(C)[C@@H]1CC[C@]2(NCCN3C[C@@H]4C[C@H]3CN4)CC[C@]3(C)[C@H](CC[C@@H]4[C@@]5(C)CC=C(c6ccc(C(=O)O)cc6)C(C)(C)[C@@H]5CC[C@]43C)[C@@H]12 [Example 10, 4-((1R,3aS,5aR,5bR,7aR,11aS,11bR,13aR,13bR)-3a-((2-((1S,4S)-2,5-diazabicyclo[2.2.1]heptan-2-yl)ethyl)amino)-5a,5b,8,8,11a-pentamethyl-1-(prop-1-en-2-yl)-2,3,3a,4,5,5a,5b,6,7,7a,8,11,11a,11b,12,13,13a,13b-octadecahydro-1H-cyclopenta[a]chrysen-9-yl)benzoic acid]	–	1.21
C=C(C)[C@@H]1CC[C@]2(NCCN3C[C@@H]4C[C@H]3CN4S(C)(=O)=O)CC[C@]3(C)[C@H](CC[C@@H]4[C@@]5(C)CC=C(c6ccc(C(=O)O)cc6)C(C)(C)[C@@H]5CC[C@]43C)[C@@H]12 [Example 11, 4-((1R,3aS,5aR,5bR,7aR,11aS,11bR,13aR,13bR)-5a,5b,8,8,11a-pentamethyl-3a-((2-((1S,4S)-5-(methylsulfonyl)-2,5-diazabicyclo[2.2.1]heptan-2-yl)ethyl)amino)-1-(prop-1-en-2-yl)-2,3,3a,4,5,5a,5b,6,7,7a,8,11,11a,11b,12,13,13a,13b-octadecahydro-1H-cyclopenta[a]chrysen-9-yl)benzoic acid]	< 100	–
CC(C)[C@@H]1CC[C@]2(NCCN3C[C@@H]4C[C@H]3CN4S(C)(=O)=O)CC[C@]3(C)[C@H](CC[C@@H]4[C@@]5(C)CC=C(c6ccc(C(=O)O)cc6)C(C)(C)[C@@H]5CC[C@]43C)[C@@H]12 [Example 12, 4-((1S,3aS,5aR,5bR,7aR,11aS,11bR,13aR,13bR)-1-isopropyl-5a,5b,8,8,11a-pentamethyl-3a-((2-((1S,4S)-5-(methylsulfonyl)-2,5-diazabicyclo[2.2.1]heptan-2-yl)ethyl)amino)-2,3,3a,4,5,5a,5b,6,7,7a,8,11,11a,11b,12,13,13a,13b-octadecahydro-1H-cyclopenta[a]chrysen-9-yl)benzoic acid]	< 100	–
C=C(C)[C@@H]1CC[C@]2(NCCN3C[C@H]4CC[C@@H](C3)N4C(=O)OC(C)(C)C)CC[C@]3(C)[C@H](CC[C@@H]4[C@@]5(C)CC=C(c6ccc(C(=O)O)cc6)C(C)(C)[C@@H]5CC[C@]43C)[C@@H]12 [Example 13, 4-((1R,3aS,5aR,5bR,7aR,11aS,11bR,13aR,13bR)-3a-((2-((1R,5S)-8-(tert-butoxycarbonyl)-3,8-diazabicyclo[3.2.1]octan-3-yl)ethyl)amino)-5a,5b,8,8,11a-pentamethyl-1-(prop-1-en-2-yl)-2,3,3a,4,5,5a,5b,6,7,7a,8,11,11a,11b,12,13,13a,13b-octadecahydro-1H-cyclopenta[a]chrysen-9-yl)benzoic acid]	> 100	–
C=C(C)[C@@H]1CC[C@]2(NCCN3C[C@H]4C[C@@H](C3)N4S(C)(=O)=O)CC[C@]3(C)[C@H](CC[C@@H]4[C@@]5(C)CC=C(c6ccc(C(=O)O)cc6)C(C)(C)[C@@H]5CC[C@]43C)[C@@H]12 [Example 14, 4-((1R,3aS,5aR,5bR,7aR,11aS,11bR,13aR,13bR)-5a,5b,8,8,11a-pentamethyl-3a-((2-((1R,5S)-6-(methylsulfonyl)-3,6-diazabicyclo[3.1.1]heptan-3-yl)ethyl)amino)-1-(prop-1-en-2-yl)-2,3,3a,4,5,5a,5b,6,7,7a,8,11,11a,11b,12,13,13a,13b-octadecahydro-1H-cyclopenta[a]chrysen-9-yl)benzoic acid]	–	3.24
C=C(C)[C@@H]1CC[C@]2(NCCN3CCC4(C3)CN(S(C)(=O)=O)C4)CC[C@]3(C)[C@H](CC[C@@H]4[C@@]5(C)CC=C(c6ccc(C(=O)O)cc6)C(C)(C)[C@@H]5CC[C@]43C)[C@@H]12 [Example 15, 4-((1R,3aS,5aR,5bR,7aR,11aS,11bR,13aR,13bR)-5a,5b,8,8,11a-pentamethyl-3a-((2-(2-(methylsulfonyl)-2,6-diazaspiro[3.4]octan-6-yl)ethyl)amino)-1-(prop-1-en-2-yl)-2,3,3a,4,5,5a,5b,6,7,7a,8,11,11a,11b,12,13,13a,13b-octadecahydro-1H-cyclopenta[a]chrysen-9-yl)benzoic acid]	–	1.65
C=C(C)[C@@H]1CC[C@]2(NCCN3CC4(C3)CN(S(C)(=O)=O)C4)CC[C@]3(C)[C@H](CC[C@@H]4[C@@]5(C)CC=C(c6ccc(C(=O)O)cc6)C(C)(C)[C@@H]5CC[C@]43C)[C@@H]12 [Example 16, 4-((1R,3aS,5aR,5bR,7aR,11aS,11bR,13 aR,13bR)-5a,5b,8,8,11a-pentamethyl-3a-((2-(6-(methylsulfonyl)-2,6-diazaspiro[3.3]heptan-2-yl)ethyl)amino)-1-(prop-1-en-2-yl)-2,3,3a,4,5,5a,5b,6,7,7a,8,11,11a,11b,12,13,13a,13b-octadecahydro-1H-cyclopenta[a]chrysen-9-yl)benzoic acid]	–	1.64
C=C(C)[C@@H]1CC[C@]2(NCCN3CC4C(C3)C4NS(C)(=O)=O)CC[C@]3(C)[C@H](CC[C@@H]4[C@@]5(C)CC=C(c6ccc(C(=O)O)cc6)C(C)(C)[C@@H]5CC[C@]43C)[C@@H]12 (stereo partly drawn) [Example 17, 4-((1R,3aS,5aR,5bR,7aR,11aS,11bR,13aR,13bR)-5a,5b,8,8,11a-pentamethyl-3a-((2-(6-(methylsulfonamido)-3-azabicyclo[3.1.0]hexan-3-yl)ethyl)amino)-1-(prop-1-en-2-yl)-2,3,3a,4,5,5a,5b,6,7,7a,8,11,11a,11b,12,13,13a,13b-octadecahydro-1H-cyclopenta[a]chrysen-9-yl)benzoic acid]	< 100	–
